We go through 37 molecules from ChEMBL document CHEMBL1156090, “Design and synthesis of cell potent BACE-1 inhibitors: structure-activity relationship of P1' substituents” (Bioorg Med Chem Lett, 2009).

A value given as a limit tells only on which side of the number the result lay.

Data set [1] relates to HEK293. In words: […] HEK293 cells expressing swedish-mutant APP FAD isoform. Format: functional, Homo sapiens. The settings on record: read-out: ED50 (the source's name).
The target of data set [2] is Beta-secretase 1 (Homo sapiens, UniProt P56817).
Chain of Beta-secretase 1 (P56817 whole entry): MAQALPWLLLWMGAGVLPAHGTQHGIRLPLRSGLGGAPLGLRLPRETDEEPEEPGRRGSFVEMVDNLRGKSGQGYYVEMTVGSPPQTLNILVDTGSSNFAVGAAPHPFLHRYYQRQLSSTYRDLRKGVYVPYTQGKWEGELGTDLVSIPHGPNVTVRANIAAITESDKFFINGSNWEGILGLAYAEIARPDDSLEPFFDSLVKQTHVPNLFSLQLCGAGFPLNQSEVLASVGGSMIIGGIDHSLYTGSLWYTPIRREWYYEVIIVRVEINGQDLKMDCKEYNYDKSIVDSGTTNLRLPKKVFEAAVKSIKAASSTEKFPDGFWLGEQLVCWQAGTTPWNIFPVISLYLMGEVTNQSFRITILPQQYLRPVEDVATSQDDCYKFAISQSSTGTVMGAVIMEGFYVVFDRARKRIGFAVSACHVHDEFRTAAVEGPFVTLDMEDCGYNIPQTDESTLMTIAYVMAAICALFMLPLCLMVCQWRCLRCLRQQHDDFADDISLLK
Description: Inhibition of recombinant BACE1 expressed in Escherichia coli after 3 hrs by oregon green based fluorescence polarization assay
In data set [3] the target is Cathepsin D (Homo sapiens, UniProt P07339).
Chain of Cathepsin D (P07339 65-162 limits assumed): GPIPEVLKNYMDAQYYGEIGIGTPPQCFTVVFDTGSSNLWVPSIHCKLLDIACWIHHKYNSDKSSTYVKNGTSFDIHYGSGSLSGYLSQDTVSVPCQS
Chain of Cathepsin D (P07339 169-412 limits assumed): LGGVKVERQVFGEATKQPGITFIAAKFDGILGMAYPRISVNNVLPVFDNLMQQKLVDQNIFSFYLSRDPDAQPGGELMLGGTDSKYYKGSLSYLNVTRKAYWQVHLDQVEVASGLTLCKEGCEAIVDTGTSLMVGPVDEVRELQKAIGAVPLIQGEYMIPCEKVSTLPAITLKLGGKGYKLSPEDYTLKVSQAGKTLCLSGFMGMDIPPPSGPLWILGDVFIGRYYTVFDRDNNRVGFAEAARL
Description: Inhibition of cathepsin D assessed as reduction in polarization after 110 mins by oregon green based fluorescence polarization assay
Data set [4] is described as follows: Apparent permeability from apical side to basolateral side in MDCK2 cells at 5 uM after 120 mins by LC/MS/MS. Format: ADME, cell-based, Canis lupus familiaris, MDCK-II. As to conditions: dog, MDCK.

With `CC(=O)N[C@@H](Cc1cc(F)cc(F)c1)[C@H](O)CN[C@@]1(c2cccc(C(C)(C)C)c2)CC[C@H](N(O)C(C)=O)NC1`, the EC50 in data set [1] (Homo sapiens, HEK293) was found to be 1.3 nM. Also, the IC50 (commonly the midpoint of a concentration-inhibition curve) in data set [2] came to 240 nM; in data set [3], 2300 nM.

For `CC(=O)N[C@@H](Cc1cc(F)cc(F)c1)[C@H](O)CN[C@@]1(c2cccc(C(C)(C)C)c2)CC[C@H](Nc2cccnc2)NC1`, the half-maximal inhibitory concentration (IC50) in data set [2] was determined as 500 nM; in data set [3] it was 9800 nM.

Consider `CC(=O)N[C@@H](Cc1cc(F)cc(F)c1)[C@H](O)CN[C@@]1(c2cccc(C(C)(C)C)c2)CCC(NO)=NC1`, for which the EC50 in data set [1] (Homo sapiens, HEK293) is 0.89 nM. The IC50 in data set [2] came out at 8.8 nM; in data set [3], 430 nM.

Take `CC(=O)N[C@@H](Cc1cc(F)cc(F)c1)[C@H](O)CNC1(c2cccc(C(C)(C)C)c2)CCNCC1`: the EC50 in data set [1] (Homo sapiens, HEK293) turned out to be 710 nM. The IC50 is 4700 nM in data set [2] and above 10000 nM in data set [3].

As for `CC(=O)N[C@@H](Cc1cc(F)cc(F)c1)[C@H](O)CNC1(c2cccc(C(C)(C)C)c2)CCC(=O)CC1`, the EC50 in data set [1] (Homo sapiens, HEK293) was 5.6 nM. Besides, the half-maximal inhibitory concentration (IC50) in data set [2] came out at 120 nM; in data set [3] it was 450 nM.

As to `CC(=O)N[C@@H](Cc1cc(F)cc(F)c1)[C@H](O)CN[C@@]1(c2cccc(C(C)(C)C)c2)CC[C@H](S(C)(=O)=O)NC1`, the EC50 in data set [1] (Homo sapiens, HEK293) amounted to 100 nM. The results for the half-inhibitory concentration (IC50) in data set [2] and in data set [3] were 210 nM and 2300 nM, respectively.

Take `CC(=O)N[C@@H](Cc1cc(F)cc(F)c1)[C@H](O)CN[C@]1(c2cccc(C(C)(C)C)c2)CC[C@H](O)CC1`: the EC50 in data set [1] (Homo sapiens, HEK293) amounted to 870 nM. In addition, the IC50 in data set [2] was 9200 nM; in data set [3], above 10000 nM.

In the case of `CS[C@H]1CC[C@@](NC[C@@H](O)[C@H](Cc2cc(F)cc(F)c2)NC(C)=O)(c2cccc(C(C)(C)C)c2)CN1`, the EC50 in data set [1] (Homo sapiens, HEK293) worked out at 7.5 nM. Moreover, the IC50 in data set [2] is 24 nM; in data set [3], 84 nM.

Turning to `CC(=O)N[C@@H](Cc1cc(F)cc(F)c1)[C@H](O)CN[C@]1(c2cccc(C(C)(C)C)c2)CC[C@@H](CO)CC1`, in data set [1] (Homo sapiens, HEK293), the EC50 was found to be 31 nM. Further, the IC50 is 38 nM in data set [2] and 330 nM in data set [3].

Take `CC(=O)N[C@@H](Cc1cc(F)cc(F)c1)[C@H](O)CN[C@]1(c2cccc(C(C)(C)C)c2)CC[C@@H](O)CC1`: the EC50 in data set [1] (Homo sapiens, HEK293) was 11 nM. Further, the IC50 was determined as 24 nM in data set [2] and 1400 nM in data set [3]. The apparent permeability from apical to basolateral (Papp A→B) (commonly the apparent permeability from the apical to the basolateral side of a cell layer) at 2 h, 5 µM in data set [4] was 0.3 ×10⁻⁶ cm/s.

Turning to `CC(=O)N[C@@H](Cc1cc(F)cc(F)c1)[C@H](O)CN[C@@]1(c2cccc(C(C)(C)C)c2)CC[C@H](C(F)(F)F)NC1`, the EC50 in data set [1] (Homo sapiens, HEK293) was 54 nM. Besides, the half-maximal inhibitory concentration (IC50) amounted to 33 nM in data set [2] and 28 nM in data set [3].

Consider `CON[C@H]1CC[C@@](NC[C@@H](O)[C@H](Cc2cc(F)cc(F)c2)NC(C)=O)(c2cccc(C(C)(C)C)c2)CN1`, for which, in data set [1] (Homo sapiens, HEK293), the EC50 was found to be 7.6 nM. The IC50 was determined as 100 nM in data set [2] and 530 nM in data set [3].

Consider `CO[C@H]1CC[C@@](NC[C@@H](O)[C@H](Cc2cc(F)cc(F)c2)NC(C)=O)(c2cccc(C(C)(C)C)c2)CN1`, for which the EC50 in data set [1] (Homo sapiens, HEK293) was 13 nM. The 50% inhibitory concentration (IC50) in data set [2] was found to be 140 nM; in data set [3], 130 nM.

With `COC(=O)N[C@H]1CC[C@@](NC[C@@H](O)[C@H](Cc2cc(F)cc(F)c2)NC(C)=O)(c2cccc(C(C)(C)C)c2)CN1`, the EC50 in data set [1] (Homo sapiens, HEK293) came out at 16 nM. The IC50 was determined as 240 nM in data set [2] and 2000 nM in data set [3].

Take `CC(=O)N[C@@H](Cc1cc(F)cc(F)c1)[C@H](O)CN[C@@]1(c2cccc(C(C)(C)C)c2)CC[C@H](Nc2ccccn2)NC1`: the EC50 in data set [1] (Homo sapiens, HEK293) was 21 nM. In addition, the figures for the IC50 in data set [2] and in data set [3] were 73 nM and 4400 nM, respectively.

Regarding `CC(=O)N[C@@H](Cc1cc(F)cc(F)c1)[C@H](O)CN[C@@]1(c2cccc(C(C)(C)C)c2)CC[C@H](NC=O)NC1`, the EC50 in data set [1] (Homo sapiens, HEK293) was 2.4 nM. Also, the IC50 in data set [2] was 210 nM; in data set [3] it was above 10000 nM.

Consider `CC(=O)N[C@@H](Cc1cc(F)cc(F)c1)[C@H](O)CN[C@@]1(c2cccc(C(C)(C)C)c2)CC[C@H](C#N)NC1`, for which the EC50 in data set [1] (Homo sapiens, HEK293) came to 37 nM. The half-maximal inhibitory concentration (IC50) in data set [2] came to 380 nM; in data set [3], 640 nM.

Take `CC(=O)N[C@@H](Cc1cc(F)cc(F)c1)[C@H](O)CN[C@@]1(c2cccc(C(C)(C)C)c2)CC[C@H](NO)NC1`: the EC50 in data set [1] (Homo sapiens, HEK293) amounted to 0.96 nM. Besides, the half-inhibitory concentration (IC50) in data set [2] was determined as 19 nM; in data set [3], 3900 nM.

Consider `CC(=O)N[C@@H](Cc1cc(F)cc(F)c1)[C@H](O)CN[C@]1(c2cccc(C(C)(C)C)c2)CC[C@@H](CCO)CC1`, for which the EC50 in data set [1] (Homo sapiens, HEK293) was above 1000 nM. Also, the concentration for half-maximal inhibition (IC50) in data set [2] and in data set [3] was above 10000 nM in each case.

On to `CC(=O)N[C@@H](Cc1cc(F)cc(F)c1)[C@H](O)CN[C@@]1(c2cccc(C(C)(C)C)c2)CC[C@H](NS(C)(=O)=O)NC1`, for which the EC50 in data set [1] (Homo sapiens, HEK293) turned out to be 5.9 nM. For the same molecule, the results for the IC50 in data set [2] and in data set [3] were 400 nM and 7200 nM, respectively.

As to `CC(=O)N[C@H]1CC[C@@](NC[C@@H](O)[C@H](Cc2cc(F)cc(F)c2)NC(C)=O)(c2cccc(C(C)(C)C)c2)CN1`, the EC50 in data set [1] (Homo sapiens, HEK293) is 48 nM. The half-maximal inhibitory concentration (IC50) in data set [2] was 350 nM; in data set [3] it was above 10000 nM.

With `CC(=O)N[C@@H](Cc1cc(F)cc(F)c1)[C@H](O)CNC1(c2cccc(C(C)(C)C)c2)CCN(C(N)=O)CC1`, the EC50 in data set [1] (Homo sapiens, HEK293) was above 1000 nM. Moreover, the IC50 worked out at 380 nM in data set [2] and 4300 nM in data set [3].

In the case of `CC(=O)N[C@@H](Cc1cc(F)cc(F)c1)[C@H](O)CNC1(c2cccc(C(C)(C)C)c2)CCc2nc(C)ncc2C1` (mixture of isomers), the EC50 in data set [1] (Homo sapiens, HEK293) is 15 nM. Moreover, the 50% inhibitory concentration (IC50) in data set [2] is 93 nM; in data set [3], 910 nM.

As for `CC(=O)N[C@@H](Cc1cc(F)cc(F)c1)[C@H](O)CNC1(c2cccc(C(C)(C)C)c2)CCCNC1` (mixture of isomers), in data set [1] (Homo sapiens, HEK293), the EC50 is above 1000 nM. The 50% inhibitory concentration (IC50) in data set [2] was above 10000 nM; in data set [3] it was 2330 nM.

As for `CC(=O)N[C@@H](Cc1cc(F)cc(F)c1)[C@H](O)CNC1(c2cccc(C(C)(C)C)c2)CCC(=O)NC1` (mixture of isomers), the EC50 in data set [1] (Homo sapiens, HEK293) was 76 nM. Further, the results for the half-inhibitory concentration (IC50) in data set [2] and in data set [3] were 47 nM and 180 nM, respectively.

Regarding `CC(=O)N[C@@H](Cc1cc(F)cc(F)c1)[C@H](O)CNC1(c2cccc(C(C)(C)C)c2)CCCN(C(=O)OCc2ccccc2)C1` (mixture of isomers), the EC50 in data set [1] (Homo sapiens, HEK293) was found to be 780 nM. The IC50 in data set [2] is 860 nM; in data set [3], 3.3 nM.

On to `CC(=O)N[C@@H](Cc1cc(F)cc(F)c1)[C@H](O)CNC1(c2cccc(C(C)(C)C)c2)CCCN(C(N)=O)C1` (mixture of isomers), for which the EC50 in data set [1] (Homo sapiens, HEK293) was 210 nM. Further, the IC50 in data set [2] was 330 nM; in data set [3] it was 90 nM.

For `CC(=O)N[C@@H](Cc1cc(F)cc(F)c1)[C@H](O)CNC1(c2cccc(C(C)(C)C)c2)CCOCC1` (mixture of isomers), the IC50 in data set [2] came to 61 nM; in data set [3] it was 230 nM. The apical-to-basolateral permeability (Papp A→B) at 2 h, 5 µM in data set [4] amounted to 8.1 ×10⁻⁶ cm/s.

For the molecule `CC(=O)N[C@@H](Cc1cc(F)cc(F)c1)[C@H](O)CNC1(c2cccc(C(C)(C)C)c2)CCCC1` (mixture of isomers), the EC50 in data set [1] (Homo sapiens, HEK293) is above 100 nM. Also, the IC50 in data set [2] came to 220 nM; in data set [3], 130 nM.

As for `CC(=O)N[C@@H](Cc1cc(F)cc(F)c1)[C@H](O)CNC1(c2cccc(-n3cccn3)c2)CCOC1` (mixture of isomers), the EC50 in data set [1] (Homo sapiens, HEK293) was above 1000 nM. For the same molecule, the IC50 in data set [2] stood at 2400 nM; in data set [3], 4900 nM.

In the case of `CC(=O)N[C@@H](Cc1cc(F)cc(F)c1)[C@H](O)CNC1(c2cccc(C(C)(C)C)c2)CCCN(O)C1` (mixture of isomers), in data set [1] (Homo sapiens, HEK293), the EC50 is 45 nM. Also, the IC50 in data set [2] was 400 nM; in data set [3], 670 nM.

Turning to `CC(=O)N[C@@H](Cc1cc(F)cc(F)c1)[C@H](O)CNC1(c2cccc(-n3cccn3)c2)CCCOC1` (mixture of isomers), in data set [1] (Homo sapiens, HEK293), the EC50 worked out at 91 nM. In addition, the half-maximal inhibitory concentration (IC50) came to 270 nM in data set [2] and 170 nM in data set [3].

Regarding `CC(=O)N[C@@H](Cc1cc(F)cc(F)c1)[C@H](O)CNC1(c2cccc(C(C)(C)C)c2)CCCN(C(C)=O)C1` (mixture of isomers), the EC50 in data set [1] (Homo sapiens, HEK293) came to 560 nM. The IC50 in data set [2] is 1300 nM; in data set [3], 410 nM.

For the molecule `CC(=O)N[C@@H](Cc1cc(F)cc(F)c1)[C@H](O)CNC1(c2cccc(C(C)(C)C)c2)CCc2n[nH]cc2C1` (mixture of isomers), the EC50 in data set [1] (Homo sapiens, HEK293) stood at 2.1 nM. It took 300 nM to reach half-maximal inhibition in data set [3] (IC50). Also, in data set [4], the Papp A→B at 2 h, 5 µM amounted to 1.6 ×10⁻⁶ cm/s.

Turning to `CC(=O)N[C@@H](Cc1cc(F)cc(F)c1)[C@H](O)CNC1(c2cccc(C(C)(C)C)c2)CCc2nc(N)ncc2C1` (mixture of isomers), the EC50 in data set [1] (Homo sapiens, HEK293) was 1.8 nM. Also, the IC50 in data set [2] worked out at 14 nM; in data set [3] it was 210 nM.

For `CC(=O)N[C@@H](Cc1cc(F)cc(F)c1)[C@H](O)CNC1(c2cccc(C(C)(C)C)c2)CCNC(=O)C1` (single isomer, unassigned), the EC50 in data set [1] (Homo sapiens, HEK293) is 21 nM. Moreover, the IC50 in data set [2] turned out to be 18 nM; in data set [3] it was 330 nM.

With `CC(=O)N[C@@H](Cc1cc(F)cc(F)c1)[C@H](O)CNC1(c2cccc(C(C)(C)C)c2)CCNC(=O)C1` (stereo in doubt; 16), the EC50 in data set [1] was determined as 23 nM. The IC50 was 19 nM in data set [2] and 1100 nM in data set [3].
